Assay results as given in article PMC11475281, “A Novel Liver Cancer-Selective Histone Deacetylase Inhibitor Is Effective against Hepatocellular Carcinoma and Induces Durable Responses with Immunotherapy” (ACS Pharmacology & Translational Science, 2024).
Read-outs that look alike come from different tables or passages of the source.

Columns and labels:
HDAC1 = HDAC1 (Homo sapiens, UniProt Q13547); test: HDAC isoform inhibition (BPS Bioscience)
HDAC6 = biological target: T1, HDAC6 (Homo sapiens, UniProt Q9UBN7); test: HDAC isoform inhibition (BPS Bioscience)
T1 sequence (Q9UBN7 1-1215): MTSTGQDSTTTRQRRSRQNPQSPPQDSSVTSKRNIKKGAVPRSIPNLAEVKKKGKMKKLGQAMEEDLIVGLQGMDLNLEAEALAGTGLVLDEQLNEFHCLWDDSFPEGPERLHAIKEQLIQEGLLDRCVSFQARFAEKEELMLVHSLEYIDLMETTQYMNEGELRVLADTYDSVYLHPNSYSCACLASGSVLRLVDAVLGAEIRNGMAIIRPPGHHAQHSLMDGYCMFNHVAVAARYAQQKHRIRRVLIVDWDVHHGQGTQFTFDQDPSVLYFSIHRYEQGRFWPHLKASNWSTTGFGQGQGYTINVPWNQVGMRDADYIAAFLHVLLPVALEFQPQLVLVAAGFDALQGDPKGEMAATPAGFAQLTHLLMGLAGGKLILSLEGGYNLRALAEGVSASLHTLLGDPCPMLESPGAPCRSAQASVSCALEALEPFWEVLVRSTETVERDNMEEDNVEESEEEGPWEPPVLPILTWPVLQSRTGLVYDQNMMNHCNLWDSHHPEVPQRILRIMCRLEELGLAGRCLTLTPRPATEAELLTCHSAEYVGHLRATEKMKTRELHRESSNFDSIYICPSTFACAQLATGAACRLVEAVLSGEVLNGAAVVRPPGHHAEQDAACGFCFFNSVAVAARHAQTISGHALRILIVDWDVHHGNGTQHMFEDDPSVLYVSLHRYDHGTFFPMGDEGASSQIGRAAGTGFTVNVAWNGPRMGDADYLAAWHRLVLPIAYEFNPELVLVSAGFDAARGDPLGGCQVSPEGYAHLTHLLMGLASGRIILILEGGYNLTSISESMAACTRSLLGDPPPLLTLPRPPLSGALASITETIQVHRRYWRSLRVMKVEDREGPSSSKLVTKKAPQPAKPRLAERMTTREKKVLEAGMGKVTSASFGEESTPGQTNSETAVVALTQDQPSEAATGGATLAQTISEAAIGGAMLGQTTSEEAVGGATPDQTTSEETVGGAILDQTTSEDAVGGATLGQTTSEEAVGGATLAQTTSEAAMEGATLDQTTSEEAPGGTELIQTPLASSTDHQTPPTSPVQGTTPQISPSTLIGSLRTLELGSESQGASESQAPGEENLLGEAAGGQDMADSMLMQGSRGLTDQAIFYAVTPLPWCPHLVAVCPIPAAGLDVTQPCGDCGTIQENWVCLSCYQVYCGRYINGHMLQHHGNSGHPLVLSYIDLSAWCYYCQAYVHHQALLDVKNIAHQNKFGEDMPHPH

[1] = test system: A549 (lung adenocarcinoma); test: MTS cell viability assay, 72 h; type: cell-based
Excerpt: (§1) We then screened STR-V-53 and all the synthesized glycosylated HDACi for their effects on the viability of three cell lines: A549 (lung adenocarcinoma), Hep-G2 (HCC), and VERO (a normal kidney epithelial cell). We used SORA and STR-V-48, a previously disclosed nonglycosylated compound, as controls.[25] […] Additionally, compound STR-V-167, the peracetylated analog of STR-V-53, largely retained the Hep-G2 selectivity of STR-V-53 (Table S2). Subsequently, we evaluated the effects of STR-V-53 on cell proliferation using a panel of human HCC cell lines (Huh-7, SK-Hep-1, and Hep3B) as well as Kupffer cells (liver resident macrophages) by MTS assay. We observed that STR-V-53 is 7- to 16-fold more cytotoxic against these HCC cell lines relative to the Kupffer cells (Figure 1g). […] Based on their weak HDAC and cell proliferation inhibition activities, we de-emphasized further evaluation of the class III compounds.
(§2) 10-017-CV), supplemented with 10% fetal bovine serum (FBS) (Corning, 35-010-CV). Hep-G2 cells were cultured in phenol red-free Minimum Essential Medium (MEM) (Corning, 17-305-CV), supplemented with 10% fetal bovine serum (FBS). SK-Hep-1 in ATCC-formulated EMEM (ATCC® 30–2003™); Huh-7 in DMEM (containing 4 mM L-glutamine and 1 g/L glucose) with […]
(§3) Kupffer Cell Media (Sekisui XenoTech, LLC, Cat. #K8700). Cells were seeded into a 96-well plate (2000 counts/100uL) for 24 h prior to treatment and then treated with various drug concentrations for 72 h. All drugs were dissolved in media with DMSO concentration maintained at 1%. The effect of compounds on cell viability was measured using the MTS assay (CellTiter 96 Aqueous One Solution and CellTiter 96 Non-Radioactive Cell Proliferation Assays, Promega, Madison, WI) as described by the manufacturer. IC50s were determined using Prism GraphPad 8. […]

[2] = test system: VERO (a normal kidney epithelial cell); test: MTS cell viability assay, 72 h; type: cell-based
Excerpt: as §1, §2, §3

HDAC2 = HDAC2 (Homo sapiens, UniProt Q92769); test: HDAC isoform inhibition (BPS Bioscience)
VERO cells = test: Immunoblotting of cleaved Caspase 3; type: cell-based; conditions: same concentrations as in Hep-G2
Experimental: Figure 3 Effects of STR-V-53 on intracellular markers of HDAC inhibition, antitumor immune response, and apoptosis. (a) STR-V-53 upregulates the levels of acetylated H4 and tubulin in Hep-G2 cells. Hep-G2 cells were treated with DMSO or 0.1% DMSO solution of SAHA (1.25 μM) and STR-V-53 (1.25 μM, 2.5 μM). Cells were treated for 5 h before lysis. Data are from two independent experiments. (b) STR-V-53 upregulates PD-L1 and downregulates PD-1 expressions in Hep-G2 cells. Cells were treated with DMSO or 0.1% DMSO solution of SAHA (5 μM and 10 μM) and STR-V-53 (10 and 20 μM) for 24 h. (c) STR-V-53 and SAHA caused upregulation of the levels of CD54 in the Hep-G2 cell line. Cells were treated with DMSO or 0.1% DMSO solution of SAHA (5 and 10 μM) and STR-V-53 (5, 10, and 20 μM) for 24 h. […] Cells were treated with DMSO or 0.1% DMSO solution of SAHA (5 μM) and STR-V-53 (10 and 20 μM).

[3] = Table S2, read-out: Anti-proliferation IC50 A549
[4] = Table S2, read-out: Anti-proliferation IC50 VERO

Sequence of HDAC2 (Q92769 whole entry, canonical isoform): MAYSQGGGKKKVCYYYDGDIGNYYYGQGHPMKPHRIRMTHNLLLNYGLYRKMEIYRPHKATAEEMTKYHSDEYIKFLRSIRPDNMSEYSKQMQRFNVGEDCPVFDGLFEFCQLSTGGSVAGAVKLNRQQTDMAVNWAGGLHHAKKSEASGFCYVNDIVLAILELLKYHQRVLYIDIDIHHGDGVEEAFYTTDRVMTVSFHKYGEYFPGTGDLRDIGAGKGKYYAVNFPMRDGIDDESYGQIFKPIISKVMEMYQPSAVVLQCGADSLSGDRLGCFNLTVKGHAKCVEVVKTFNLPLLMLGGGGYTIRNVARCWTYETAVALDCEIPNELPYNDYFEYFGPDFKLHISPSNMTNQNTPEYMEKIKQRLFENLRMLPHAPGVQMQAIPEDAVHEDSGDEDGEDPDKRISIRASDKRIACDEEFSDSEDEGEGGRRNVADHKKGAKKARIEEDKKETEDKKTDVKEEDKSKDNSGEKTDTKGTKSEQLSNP
Sequence of HDAC1 (Q13547 whole entry, canonical isoform): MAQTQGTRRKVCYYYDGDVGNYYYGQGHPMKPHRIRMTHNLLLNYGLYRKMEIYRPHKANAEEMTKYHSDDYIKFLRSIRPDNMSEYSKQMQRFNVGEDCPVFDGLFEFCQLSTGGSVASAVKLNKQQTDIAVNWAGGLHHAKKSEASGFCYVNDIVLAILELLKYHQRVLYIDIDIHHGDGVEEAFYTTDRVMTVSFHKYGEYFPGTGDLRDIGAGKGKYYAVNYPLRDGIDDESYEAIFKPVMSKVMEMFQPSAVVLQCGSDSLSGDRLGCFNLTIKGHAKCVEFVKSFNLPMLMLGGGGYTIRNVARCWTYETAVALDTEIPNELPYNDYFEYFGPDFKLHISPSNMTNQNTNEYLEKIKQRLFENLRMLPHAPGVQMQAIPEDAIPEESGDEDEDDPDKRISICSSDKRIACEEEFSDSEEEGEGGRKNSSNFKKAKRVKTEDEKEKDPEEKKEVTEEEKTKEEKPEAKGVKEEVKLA

| SMILES | IC50 (HDAC1; read-out: HDAC1 IC50, Table S1) | IC50 (HDAC6; read-out: HDAC6 IC50, Table S1) | IC50 [1, 3] | IC50 [2, 4] | IC50 (HDAC2; read-out: HDAC2 IC50, Table S1) | Caspase 3 cleavage (VERO cells) | IC50 (HDAC1) | IC50 (HDAC6) | IC50 ([1]; Homo sapiens, A549, Figure 1g, read-out: Anti-proliferation effects IC50 (μM) A549) | IC50 ([2]; Chlorocebus sabaeus, Vero, Figure 1g, read-out: Anti-proliferation effects IC50 (μM) Vero) | IC50 (HDAC2) |
| --- | --- | --- | --- | --- | --- | --- | --- | --- | --- | --- | --- |
| O=C(CCCCCCn1cc(-c2ccc3cc(O[C@H]4O[C@H](CO)[C@@H](O)[C@H](O)[C@H]4O)ccc3c2)nn1)NO [STR-V-114] | 0.0203 µM | 0.0045 µM | 77.2 ± 4.3 µM | 34.1 ± 3 µM | 0.0615 µM | – | – | – | – | – | – |
| O=C(CCCCCCn1cc(-c2ccc(O[C@H]3O[C@H](CO)[C@@H](O)[C@H](O)[C@H]3O)cc2)nn1)NO [STR-V-53] | – | – | – | – | – | did not induce cleavage of Caspase 3 | 0.0243 µM | 0.00343 µM | > 100 µM | > 100 µM | 0.0601 µM |
| O=C(CCCCCCn1cc(-c2ccc(O[C@@H]3O[C@H](CO)[C@@H](O)[C@H](O)[C@H]3O)cc2)nn1)NO [STR-I-195] | 0.0146 µM | 0.00251 µM | > 100 µM | 65.5 ± 8.3 µM | 0.0291 µM | did not induce cleavage of Caspase 3 | – | – | – | – | – |
| O=C(CCCCCCC(=O)Nc1ccccc1)NO [SAHA, vorinostat, reference compound] | – | – | – | – | – | induced cleavage of Caspase 3 | – | – | – | – | – |
